We go through five compounds from patent publication US9994535B2, “Desferrithiocin polyether analogues” (University of Florida Research Foundation, Inc., priority 2005, dated 2018).

Where only a bound is given, the exact number is not on record here.

Data set [1] in a line: Iron clearing efficiency in non-iron overloaded, bile duct cannulated rat model. In kind it is in vivo. The note with it: for Efficiency (%) (iron clearing efficiency): 300 μmol/kg, 24 hour iron excretion, 2:1 ligand-iron complex; for Iron clearing efficiency compared with parent drug (S)-4-(HO)-DADFT: same micromole per kilogram dose. The protocol:
Iron Clearing Efficiency of Iron Chelators in a Non-Iron Overloaded, Bile Duct Cannulated Rat Model
Studies were performed in the non-iron overloaded, bile duct cannulated rodent model with the compounds shown below.
Briefly, male Sprague-Dawley rats averaging 450 g were housed in Nalgene plastic metabolic cages during the experimental period and given free access to water. The animals were anesthetized using sodium pentobarbital (55 mg/kg) administered intraperitoneally. The bile duct was cannulated using 22-gauge polyethylene tubing. The cannula was inserted into the duct about 1 cm from the duodenum and tied snugly in place. After threading through the shoulder, the cannula was passed from the rat to the swivel inside a metal torque-transmitting tether, which was attached to a rodent jacket around the animal's chest. The cannula was directed from the rat to a Gilson microfraction collector (Middleton, Wis.) by a fluid swivel mounted above the metabolic cage. Three hour bile samples were continuously collected for a minimum of 24 hours up to 48 hours. However, the efficiency calculations are based on the 24 hour iron excretion. The efficiency of each chelator was calculated on the basis of a 2:1 ligand-iron complex. The efficiencies in the rodent model were calculated by subtracting the iron excretion of control animals from the iron excretion of treated animals. This number was then divided by the theoretical output; the result is expressed as a percentage (Bergeron, R. J., et al., J. Med Chem. 42:95-108 (1999) the entire contents of which are incorporated herein by reference). The urine sample was taken at 24 hours and handled as previously described in Bergeron, R. J., et al., J. Med. Chem. 34:2072-2078 (1991), the entire contents of which are incorporated herein by reference.

Data set [2] is described as follows: Tissue and plasma concentrations upon subcutaneous administration to rats. It is filed as in vivo. The note with it: rat, sc 300 μmol/kg. As for the experimental part:
Tissue Distribution of a Polyether-Substituted (S)-4′-Hydroxydesazadesferrithiocin Analogue [(S)-4′-(HO)-DADFT-PE] Upon Subcutaneous Administration to Rats
A measurement was made assessing (S)-4′-(HO)-DADFT-PE and (S)-4′-(HO)-DADFT tissue and plasma concentrations upon subcutaneous administration at times from 2-8 h post dosing. The rats were given this compound subcutaneously at 300 μmol/kg. The tissue and plasma level were obtained as described in Bergeron et al. J Med Chem. 48:821-831 (2005), the entire contents of which are incorporated herein by reference.

`COc1ccc(C2=N[C@@](C)(C(=O)O)CS2)c(O)c1` [(S)-4′-(CH3O)-DADFT]: in data set [1] (p.o.), the “Efficiency (%) (iron clearing efficiency)” value (from here on “Efficiency (%)”) is given as 6.6 ± 2.8%. Moreover, in data set [2] (2 h), the “Brain concentration of administered compound” value stood at 13.2 ± 4.8 nmol/g wet wt, the “Brain concentration of metabolite of administered compound” value is reported as under 2.4 nmol/g wet wt, the “Heart concentration of administered compound” value was determined as 66.2 ± 2.2 nmol/g wet wt and the “Heart concentration of metabolite of administered compound” value is 6.4 ± 0.6 nmol/g wet wt. Further, in data set [2] (2 h), the “Kidney concentration of administered compound” value is 97.5 ± 24.5 nmol/g wet wt, the “Kidney concentration of metabolite of administered compound” value stood at 49.9 ± 21.3 nmol/g wet wt, the “Liver concentration of administered compound” value came to 111.0 ± 14.0 nmol/g wet wt and the “Liver concentration of metabolite of administered compound” value was 43.5 ± 4.5 nmol/g wet wt. In data set [2] (2 h), the “Pancreas concentration of administered compound” value is 37.1 ± 3.8 nmol/g wet wt and the “Pancreas concentration of metabolite of administered compound” value is 1.3 ± 2.2 nmol/g wet wt. In data set [2] (4 h), the “Brain concentration of administered compound” value was found to be 7.4 ± 0.7 nmol/g wet wt, the “Brain concentration of metabolite of administered compound” value is reported as under 2.4 nmol/g wet wt, the “Heart concentration of administered compound” value was found to be 32.6 ± 3.6 nmol/g wet wt and the “Heart concentration of metabolite of administered compound” value is given as under 4.8 nmol/g wet wt. In data set [2] (4 h), the “Kidney concentration of administered compound” value turned out to be 57.0 ± 15.5 nmol/g wet wt, the “Kidney concentration of metabolite of administered compound” value was determined as 23.2 ± 1.7 nmol/g wet wt, the “Liver concentration of administered compound” value was 73.8 ± 10.8 nmol/g wet wt and the “Liver concentration of metabolite of administered compound” value worked out at 24.6 ± 1.1 nmol/g wet wt. In data set [2] (4 h), the “Pancreas concentration of administered compound” value worked out at 19.4 ± 1.4 nmol/g wet wt and the “Pancreas concentration of metabolite of administered compound” value amounted to 0.0 ± 0.0 nmol/g wet wt. In data set [2] (6 h), the “Brain concentration of administered compound” value is 4.8 ± 3.1 nmol/g wet wt, the “Brain concentration of metabolite of administered compound” value is under 2.4 nmol/g wet wt, the “Heart concentration of administered compound” value stood at 28.2 ± 0.7 nmol/g wet wt and the “Heart concentration of metabolite of administered compound” value was under 4.8 nmol/g wet wt. Moreover, in data set [2] (6 h), the “Kidney concentration of administered compound” value is given as 67.2 ± 9.9 nmol/g wet wt, the “Kidney concentration of metabolite of administered compound” value is listed as 21.7 ± 6.2 nmol/g wet wt, the “Liver concentration of administered compound” value worked out at 80.9 ± 10.7 nmol/g wet wt and the “Liver concentration of metabolite of administered compound” value is on record as 26.9 ± 5.1 nmol/g wet wt. For the same compound, in data set [2] (6 h), the “Pancreas concentration of administered compound” value came to 16.5 ± 4.5 nmol/g wet wt and the “Pancreas concentration of metabolite of administered compound” value amounted to 0.0 ± 0.0 nmol/g wet wt. Also, in data set [2] (8 h), the “Brain concentration of administered compound” value is recorded as under 1.6 ± 0.0 nmol/g wet wt, the “Brain concentration of metabolite of administered compound” value was under 2.4 nmol/g wet wt, the “Heart concentration of administered compound” value came out at 26.3 ± 9.7 nmol/g wet wt and the “Heart concentration of metabolite of administered compound” value was under 4.8 nmol/g wet wt. In addition, in data set [2] (8 h), the “Kidney concentration of administered compound” value was determined as 67.4 ± 19.9 nmol/g wet wt, the “Kidney concentration of metabolite of administered compound” value stood at 25.3 ± 2.5 nmol/g wet wt, the “Liver concentration of administered compound” value stood at 81.4 ± 15.9 nmol/g wet wt and the “Liver concentration of metabolite of administered compound” value was found to be 25.0 ± 3.6 nmol/g wet wt. Further, in data set [2] (8 h), the “Pancreas concentration of administered compound” value was determined as 9.7 ± 0.7 nmol/g wet wt and the “Pancreas concentration of metabolite of administered compound” value is on record as 0.0 ± 0.0 nmol/g wet wt. Moreover, in data set [2] (plasma, 2 h), the “Plasma concentration of administered compound” value is 478.8 ± 36.8 µM and the “Plasma concentration of metabolite of administered compound” value stood at 8.4 ± 1.8 µM. Besides, in data set [2] (plasma, 4 h), the “Plasma concentration of administered compound” value is 236.3 ± 42.0 µM and the “Plasma concentration of metabolite of administered compound” value came out at 4.2 ± 1.0 µM. In data set [2] (plasma, 6 h), the “Plasma concentration of administered compound” value was 142.5 ± 29.5 µM and the “Plasma concentration of metabolite of administered compound” value was found to be 1.8 ± 0.6 µM. Also, in data set [2] (plasma, 8 h), the “Plasma concentration of administered compound” value stood at 79.6 ± 13.3 µM and the “Plasma concentration of metabolite of administered compound” value came out at 0.0 ± 0.0 µM.

`C[C@]1(C(=O)O)CSC(c2ccc(O)cc2O)=N1` [(S)-4′-(HO)-DADFT, (S)-2-(2,4-dihydroxyphenyl)-4,5-dihydro-4-methyl-4-thiazolecarboxylic acid]: in data set [1] (p.o.), the “Efficiency (%)” value stood at 1.0 ± 0.4%. Besides, the “Efficiency (%)” value in data set [1] (s.c.) amounted to 1.1 ± 0.6%. Besides, in data set [2] (2 h), the “Brain concentration of administered compound” value is 0 ± 0 nmol/g wet wt, the “Heart concentration of administered compound” value was 4.6 ± 3^ nmol/g wet wt, the “Kidney concentration of administered compound” value is recorded as 97.1 ± .50 nmol/g wet wt and the “Liver concentration of administered compound” value is listed as 48.3 ± 20.3 nmol/g wet wt. The “Pancreas concentration of administered compound” value in data set [2] (2 h) is 5.8 ± 1.3 nmol/g wet wt. In data set [2] (4 h), the “Brain concentration of administered compound” value came to 0 ± 0 nmol/g wet wt, the “Heart concentration of administered compound” value was 0 ± 0 nmol/g wet wt, the “Kidney concentration of administered compound” value is 26.6 ± 7.1 nmol/g wet wt and the “Liver concentration of administered compound” value is reported as 25.0 ± 3.9 nmol/g wet wt. The “Pancreas concentration of administered compound” value in data set [2] (4 h) is given as 0 ± 0 nmol/g wet wt. Moreover, in data set [2] (6 h), the “Brain concentration of administered compound” value turned out to be 0 ± 0 nmol/g wet wt, the “Heart concentration of administered compound” value was found to be 0 ± 0 nmol/g wet wt, the “Kidney concentration of administered compound” value turned out to be 13.0 ± 8.0 nmol/g wet wt and the “Liver concentration of administered compound” value is reported as 19.3 ± 2.0 nmol/g wet wt. For the same compound, the “Pancreas concentration of administered compound” value in data set [2] (6 h) was determined as 0 ± 0 nmol/g wet wt. In data set [2] (8 h), the “Brain concentration of administered compound” value was 0 ± 0 nmol/g wet wt, the “Heart concentration of administered compound” value was 0 ± 0 nmol/g wet wt, the “Kidney concentration of administered compound” value was determined as 8.8 ± 2.9 nmol/g wet wt and the “Liver concentration of administered compound” value turned out to be 12.3 ± 0.8 nmol/g wet wt. For the same compound, the “Pancreas concentration of administered compound” value in data set [2] (8 h) came out at 0 ± 0 nmol/g wet wt. Besides, in data set [2] (plasma, 2 h, read-out: Plasma concentration of administered compound), the concentration at 2 h was 13.1 ± 2.7 µM. For the same compound, the “Plasma concentration of administered compound” value in data set [2] (plasma, 4 h) was 2 ± 0.4 µM. Moreover, the concentration at 6 h in data set [2] (plasma, 6 h, read-out: Plasma concentration of administered compound) worked out at 0 nM. For the same compound, the concentration at 8 h in data set [2] (plasma, 8 h, read-out: Plasma concentration of administered compound) is 0 nM.

Take `CCOC(=O)[C@@]1(C)CSC(c2ccc(OCCOCCOCCOC)cc2O)=N1` [(S)-4′-(HO)-DADFT-PE EE]: in data set [1] (s.c.), the “Efficiency (%)” value was 11.4 ± 0.8%. In addition, the “Iron clearing efficiency compared with parent drug (S)-4-(HO)-DADFT” value in data set [1] is “work better than the parent drug”.

On to `COCCOCCOCCOc1ccc(C2=N[C@@](C)(C(=O)OC(C)C)CS2)c(O)c1` [(S)-4′-(HO)-DADFT-PE iPrE], for which the “Efficiency (%)” value in data set [1] (p.o.) worked out at 9.2 ± 4.4%; in data set [1] (s.c.), 25.9 ± 9.2%. In addition, the “Iron clearing efficiency of isopropylester vs ethyl ester” value in data set [1] (both administered subcutaneously) is on record as “significantly more efficient”. In data set [1], the “Iron clearing efficiency compared with parent drug (S)-4-(HO)-DADFT” value is reported as “work better than the parent drug”.

As to `CC(C)OC(=O)[C@@]1(C)CSC(c2ccc(O)cc2O)=N1` [(S)-4′-(HO)-DADFT-iPrE], the “Efficiency (%)” value in data set [1] (s.c.) was found to be 1.98 ± 0.91%.
